Source: patent publication US20150268219A1, “Method for Renal Transplantation” (Universite Paris Diderot Paris 7, priority 2014, published 2015)

Assays:
Type in all cases: cell-based, C57BL/6 mice
[1] = system: bone marrow-derived macrophages (BMM); experiment: Differentiation and TLR-agonist activation (CD86) of bone marrow-derived macrophages cultured with iron
Procedure: (§1) Bone Marrow derived macrophages (BMM) were prepared from the femur and tibias of C57BL/6 mice between 6 and 8 weeks of age. Bone marrow cells were cultured for 7-8 days at 37° C. and 5% CO2 in at 2×10^6 cells/ml in RPMI 1640 medium (Invitrogen) containing 10% FBS (v/v; Biowest), penicillin/streptomycin and 15% supernatant of L929 cells (v/v) as a source of M-CSF in the presence or in the absence of FeCl3-nitrilotriacetate (FeCl3-NTA; 10-60 μM as indicated). In some conditions, lipopolysaccharide (LPS) (150 ng/ml) (Sigma-Aldrich), peptidoglycan (PGN) (15 μg/ml), Poly-IC (50 μg/ml) (all from cayla-Invivogen, Toulouse, France) were added 12 hours before BBMs analysis on day 8.
Cells suspensions were prepared from cell culture or tissue and were incubated with anti-FcγR mAb 2.4G2 to block IgG receptors before cell staining for specific surface markers. Cells (1·10^6) were then stained at 4° C. in PBS containing 1% BSA with antibodies against mouse CD11b (M1/70, BioLegend), F4/80 (BM8, eBioscience), CD86 (GL-1, BioLegend), Ly6G (1A8, BD Biosciences), Ly6C (HK1.4, BioLegend). The presence of macrophages (CD11b^+F4/80^+Ly6G^− cells) in the peritoneum was analyzed by flow cytometry.

[2] = system: bone marrow-derived macrophages (BMM); experiment: Cytokine production in culture supernatant of BMM stimulated with LPS; conditions: LPS-Fe-BMM vs LPS-BMM
Procedure: as §1
Kidney tissues were homogenized in 300 μl of RIPA buffer supplemented with phosphatase and protease inhibitors cocktail (Sigma-Aldrich) for 30 s. Samples were cooled on ice for 30 min. Lysates were finally centrifuged at 10 000 g at 4° C. The cytokines IL-6, TNF-α, MCP-1, IL-10 and IL-12 were measured simultaneously by cytometric bead array (CBA) using mouse inflammation kit (according to the manufacturer's instruction (BD biosciences). Results were analyzed using FCAP array software. Proteins were quantified in supernatants by the bicinchoninic acid (BCA) method according to the manufacturer's instructions (Pierce). Cytokine concentrations were normalized to total protein concentration and expressed as picograms per milligram of total tissue protein.

[3] = system: bone marrow-derived macrophages (BMM); experiment: Comparative gene-chip analysis of macrophages treated or not with soluble iron and LPS; conditions: data not shown
Procedure: as §1
To further investigate whether iron load could influence macrophage activation, the inventors analyzed responses to TLR agonists. […] Increased iron levels in cultures promoted macrophage unresponsiveness to LPS both when it was added at the onset of cultures from primary bone marrow progenitors (day 0) or to cultures of almost completely differentiated cells (90% CD11b+ and F4/80+BMM; day 4) (data not shown). Thus, increased extracellular iron load impairs macrophage activation. To gain insight into the molecular mechanisms involved in iron load-dependent inhibition of macrophage inflammatory responses, the inventors performed comparative gene-chip analysis of macrophages treated or not with soluble iron (Fe-NTA, 60 μM) and subjected or not to LPS treatment. Venn diagram analysis from Affymetrix® microarray chips confirmed that the overall response to LPS differed between control (BMM) and iron-treated (Fe-BMM) macrophages (data not shown). Comparison Gene Ontology (GO) analysis was further performed to test the biological relevance of genes differing between these conditions.

[4] = system: bone marrow-derived macrophages (BMM); experiment: Reactive oxygen species (ROS) assessment by DCFH fluorescence; conditions: BMM differentiated with 10 or 20 μM FeCl3-NTA for 7 days, LPS 150 ng/mL 3 hours; vs control macrophages
Procedure: as §1
Bone-marrow derived macrophages (BMM) were stimulated by LPS (150 ng/ml) to induce ROS production. After 3 hours, BMM were washed with PBS and 5 μM dichlorodihydrofluorescein-diacetate (DCFH-DA) was added and incubated for 20 min at 37° C. Cells were washed again and taken to flow cytometer to ROS analysis. FeCl3-NTA was used as mentioned before and NaOH was used as vehicle.

[5] = 60 μM, LPS-Fe-BMM compared to LPS-BMM

For FeCl3-nitrilotriacetate [Fe-NTA], the “CD86 up-regulation in response to TLR4 agonist (LPS)” value ([1]; BMM cultured with 20 or 60 μM iron, LPS 150 ng/mL overnight) was “not able to up-regulate CD86”, the “CD86 up-regulation in response to TLR2 agonist (PGN)” value ([1]; BMM cultured with 20 or 60 μM iron, PGN overnight) was “not able to up-regulate CD86” and the “CD86 up-regulation in response to TLR3 agonist (poly I:C)” value ([1]; BMM cultured with 20 or 60 μM iron, poly-IC overnight) was “not able to up-regulate CD86”. The “macrophage differentiation (cell morphology, CD11b and F4/80 expression)” value ([1]; BMM differentiated with 20 μM and 60 μM, data not shown) was “not affected”, the “secretion of IL-6” value [2] was “impaired secretion” and the “secretion of MCP-1” value [2] was “impaired secretion”. The “secretion of TNF-α” value [2] was “impaired secretion”, the “genes implicated in inflammatory response” value [3, 5] was “downregulated” and the “genes involved in NF-κB responses” value [3, 5] was “down-regulated”. For the same substance, the “expression of genes involved in anti-oxidant responses” value ([3]; Fe-BMM compared to control cells) was “Increased expression”, the “expression of genes characterizing M1 or M2 phenotypes” value ([3]; increased extracellular iron levels) was “inhibited” and the “ROS responses to LPS stimulation” value [4] was “impaired”.
